# Tests used:
# Galectin-1 = Galectin-1 (Homo sapiens (Human), UniProt P09382); assay: Fluorescence anisotropy assay, compound as inhibitor of galectin / fluorescein tagged saccharide probe interaction; type: binding
# Experimental: (§1) 100 nM albumin was included as a carrier to prevent protein loss at such low concentration of galectin.
# Galectin-3 = Galectin-3 (Homo sapiens (Human), UniProt P17931); assay: Fluorescence anisotropy assay with high-affinity probe (SY), 50 nM galectin-3, 100 nM albumin; type: binding
# Experimental: as §1
# galectins = conditions: all galectins; reviewed by Leffler, 2001 and Leffler et al., 2004; cited from earlier work
# Sequence of Galectin-3 (P17931 whole entry): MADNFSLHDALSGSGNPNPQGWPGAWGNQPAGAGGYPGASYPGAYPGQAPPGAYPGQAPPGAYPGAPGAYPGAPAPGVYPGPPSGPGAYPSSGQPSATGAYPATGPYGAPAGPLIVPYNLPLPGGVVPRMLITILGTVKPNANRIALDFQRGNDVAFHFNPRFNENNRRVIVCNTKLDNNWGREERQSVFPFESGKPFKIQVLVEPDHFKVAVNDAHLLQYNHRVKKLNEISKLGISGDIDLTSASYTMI
# Sequence of Galectin-1 (P09382 whole entry): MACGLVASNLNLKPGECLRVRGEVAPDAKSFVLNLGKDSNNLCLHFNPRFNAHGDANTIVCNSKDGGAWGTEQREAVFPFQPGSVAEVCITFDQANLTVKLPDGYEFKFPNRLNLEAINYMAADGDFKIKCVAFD
compound,measurement,setting,value
"OCC1O[C@@H](SC2O[C@H](CO)C(O)C(n3cc(-c4ccc(F)c(F)c4)nn3)[C@H]2O)C(O)[C@@H](n2cc(-c3ccc(F)c(F)c3)nn2)[C@H]1O (stereo partly drawn) [Example 3a, 3,3′-dideoxy-3,3′-di-[4-(3,4-difluorophenyl)-1H-1,2,3-triazol-1-yl]-1,1′-sulfanediyl-di-β-D-galactopyranoside]",Kd,Galectin-1; Experimental Section 2,78 nM
same,Kd,Galectin-3; Experimental Section 2,3 nM
"OCC1O[C@@H](SC2O[C@H](CO)C(O)C(n3cc(-c4cc(F)c(F)c(F)c4)nn3)[C@H]2O)C(O)[C@@H](n2cc(-c3cc(F)c(F)c(F)c3)nn2)[C@H]1O (stereo partly drawn) [Example 3b, 3,3′-bisdeoxy-3,3′-bis-[4-(3,4,5-trifluorophenyl)-1H-1,2,3-triazol-1-yl]-1,1′-sulfanediyl-di-β-D-galactopyranoside]",Kd,Galectin-1; Experimental Section 2,79 nM
same,Kd,Galectin-3; Experimental Section 2,1 nM
"OCC1O[C@@H](SC2O[C@H](CO)C(O)C(n3cc(-c4cc(F)cc(F)c4)nn3)[C@H]2O)C(O)[C@@H](n2cc(-c3cc(F)cc(F)c3)nn2)[C@H]1O (stereo partly drawn) [Example 3c, 3,3′-bisdeoxy-3,3′-bis-[4-(3,5-difluorophenyl)-1H-1,2,3-triazol-1-yl]-1,1′-sulfanediyldi-β-D-galactopyranoside]",Kd,Galectin-1; Experimental Section 2,110 nM
same,Kd,Galectin-3; Experimental Section 2,2 nM
"O=c1oc2ccc(F)c(F)c2cc1COC1C(O)[C@@H](CO)OC(S[C@@H]2OC(CO)[C@H](O)[C@H](n3cc(-c4cccc(F)c4)nn3)C2O)[C@@H]1O (stereo partly drawn) [Example S8a, 3′-Deoxy-3-O-[(5,6-difluoro-2-oxo-3-chromenyl)methyl]-3′-[4-(3-fluorophenyl)-1H-1,2,3-triazol-1-yl]-1,1′-sulfanediyl-di-β-D-galactopyranoside]",Kd,Galectin-1; Experimental Section 1,320 nM
same,Kd,Galectin-3; Experimental Section 1,28 nM
"O=c1oc2ccc(F)c(F)c2cc1COC1C(O)[C@@H](CO)OC(S[C@@H]2OC(CO)[C@H](O)[C@H](n3cc(-c4cc(F)c(F)c(F)c4)nn3)C2O)[C@@H]1O (stereo partly drawn) [Example S8b, 3′-Deoxy-3-O-[(5,6-difluoro-2-oxo-3-chromenyl)methyl]-3′-[4-(3,4,5-trifluorophenyl)-1H-1,2,3-triazol-1-yl]-1,1′-sulfanediyl-di-β-D-galactopyranoside]",Kd,Galectin-1; Experimental Section 1,480 nM
same,Kd,Galectin-3; Experimental Section 1,2 nM
"CCCCNC(=O)c1cn([C@@H]2C(O)[C@H](SC3O[C@H](CO)C(O)C(OCc4cc5c(F)c(F)ccc5oc4=O)[C@H]3O)OC(CO)[C@@H]2O)nn1 (stereo partly drawn) [Example S8c, 3′-{4-[(Butylamino)carbonyl]-1H-1,2,3-triazol-1-yl}-3′deoxy-3-O-[(5,6-difluoro-2-oxo-3-chromenyl)methyl]-1,1′-sulfanediyl-di-β-D-galactopyranoside]",Kd,Galectin-1; Experimental Section 1,1200 nM
same,Kd,Galectin-3; Experimental Section 1,72 nM
"CCCCNC(=O)c1cn(C2C(O)[C@@H](CO)OC(S[C@@H]3OC(CO)[C@H](O)[C@H](n4cc(-c5cc(F)c(F)c(F)c5)nn4)C3O)[C@@H]2O)nn1 (stereo partly drawn) [Example S11, 3-{4-[(Butylamino)carbonyl]-1H-1,2,3-triazol-1-yl}-3,3′-dideoxy-3′-[4-(3,4,5-trifluorophenyl)-1H-1,2,3-triazol-1-yl]-1,1′-sulfanediyl-di-β-D-galactopyranoside]",Kd,Galectin-1; Experimental Section 1,77 nM
same,Kd,Galectin-3; Experimental Section 1,1 nM
"COc1c(F)c(F)c(C(=O)NC2C(O)C(CO)OC(SC3OC(CO)C(O)C(n4cc(-c5cccc(F)c5)nn4)C3O)C2O)c(F)c1F [Example S16, 3,3′-Dideoxy-3′-[4-(3-fluorophenyl)-1H-1,2,3-triazol-1-yl]-3-(4-methoxy-2,3,5,6-tetrafluoro-benzamido)-1′-sulfanediyl-di-β-D-galactopyranoside]",Kd,Galectin-1; Experimental Section 1,90 nM
same,Kd,Galectin-3; Experimental Section 1,7 nM
"O=C(NC1C(O)C(CO)OC(SC2OC(CO)C(O)C(n3cc(-c4cccc(F)c4)nn3)C2O)C1O)c1c2ccccc2cc2ccccc12 [Example S20a, 3-(9-anthracenecarboxamide)-3,3′-Dideoxy-3-[4-(3-fluorophenyl)-1H-1,2,3-triazol-1-yl]-1,1′-sulfanediyl-di-β-D-galactopyranoside]",Kd,Galectin-1; Experimental Section 1,380 nM
same,Kd,Galectin-3; Experimental Section 1,64 nM
"O=C(NC1C(O)C(CO)OC(SC2OC(CO)C(O)C(n3cc(-c4cccc(F)c4)nn3)C2O)C1O)c1ccc2cc3ccccc3cc2c1 [Example S20b, 3-(2-anthracenecarboxamide)-3,3′-Dideoxy-3-[4-(3-fluorophenyl)-1H-1,2,3-triazol-1-yl]-1,1′-sulfanediyl-di-β-D-galactopyranoside]",Kd,Galectin-1; Experimental Section 1,490 nM
same,Kd,Galectin-3; Experimental Section 1,140 nM
"OCC1O[C@@H](SC2O[C@H](CO)C(O)C(n3cc(-c4ccccc4)nn3)[C@H]2O)C(O)[C@@H](n2cc(-c3cc(F)c(F)c(F)c3)nn2)[C@H]1O (stereo partly drawn) [Example S21, 3,3′-Dideoxy-3-[4-(3,4,5-trifluorophenyl)-1H-1,2,3-triazol-1-yl]-3′-[4-phenyl-1H-1,2,3-triazol-1-yl]-1,1′-sulfanediyl-di-β-D-galactopyranoside]",Kd,Galectin-1; Experimental Section 1,66 nM
same,Kd,Galectin-3; Experimental Section 1,3 nM
OC[C@H]1O[C@@H](O[C@H]2[C@H](O)[C@@H](O)C(O)O[C@@H]2CO)[C@H](O)[C@@H](O)[C@H]1O (some centres unmarked) [lactose],Kd,galectins,500 to 1000 µM

# — patent publication US10800804B2, “Hybrid galactoside inhibitor of galectins” (GALECTO BIOTECH AB, priority 2014, dated 2020)
